Activity calls are given as the source filed them. The calls are words filed in the database; no cut-off is given here.
What was measured:
Histone deacetylase 1 = Histone deacetylase 1 (Homo sapiens, UniProt Q13547); assay: Inhibition of human HDAC1 preincubated for 15 mins followed by substrate addition by fluorescence-based assay
[1] = target: T1, Protein deacetylase HDAC6 (Homo sapiens, UniProt Q9UBN7); assay: Inhibition of human HDAC6 preincubated for 15 mins followed by substrate addition by fluorescence-based assay
T1 sequence (Q9UBN7 whole entry): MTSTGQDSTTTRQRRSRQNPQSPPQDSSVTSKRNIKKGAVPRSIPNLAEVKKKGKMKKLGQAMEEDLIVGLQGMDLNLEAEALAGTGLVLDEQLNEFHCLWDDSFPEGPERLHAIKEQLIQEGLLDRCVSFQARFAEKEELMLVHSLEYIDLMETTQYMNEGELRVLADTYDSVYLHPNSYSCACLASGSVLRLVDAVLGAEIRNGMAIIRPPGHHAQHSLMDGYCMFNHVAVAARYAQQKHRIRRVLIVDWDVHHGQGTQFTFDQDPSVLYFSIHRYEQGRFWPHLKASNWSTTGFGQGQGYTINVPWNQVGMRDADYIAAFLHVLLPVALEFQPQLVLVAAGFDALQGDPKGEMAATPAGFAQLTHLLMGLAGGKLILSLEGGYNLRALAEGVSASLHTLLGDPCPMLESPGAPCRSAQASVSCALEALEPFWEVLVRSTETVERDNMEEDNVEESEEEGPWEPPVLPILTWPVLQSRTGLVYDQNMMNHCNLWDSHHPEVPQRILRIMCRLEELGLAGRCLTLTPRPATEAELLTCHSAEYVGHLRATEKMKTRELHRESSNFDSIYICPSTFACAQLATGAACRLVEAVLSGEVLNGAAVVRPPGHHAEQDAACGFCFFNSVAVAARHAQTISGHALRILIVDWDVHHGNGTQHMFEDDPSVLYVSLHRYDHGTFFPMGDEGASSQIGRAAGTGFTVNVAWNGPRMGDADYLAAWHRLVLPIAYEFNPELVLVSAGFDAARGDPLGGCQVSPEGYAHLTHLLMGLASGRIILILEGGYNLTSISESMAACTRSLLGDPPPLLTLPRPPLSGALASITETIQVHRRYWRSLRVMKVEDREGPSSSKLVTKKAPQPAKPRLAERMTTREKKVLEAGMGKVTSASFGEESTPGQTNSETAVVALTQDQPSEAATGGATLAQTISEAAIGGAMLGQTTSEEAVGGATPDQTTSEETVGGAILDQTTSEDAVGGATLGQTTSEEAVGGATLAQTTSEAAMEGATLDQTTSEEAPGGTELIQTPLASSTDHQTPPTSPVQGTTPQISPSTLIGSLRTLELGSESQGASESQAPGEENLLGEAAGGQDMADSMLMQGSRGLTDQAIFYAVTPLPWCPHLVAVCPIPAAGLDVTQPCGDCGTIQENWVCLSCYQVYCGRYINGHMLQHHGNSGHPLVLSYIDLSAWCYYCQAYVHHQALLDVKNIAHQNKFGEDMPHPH

Rattus norvegicus [2] = assay: Neuroprotective activity in Sprague-Dawley rat middle cerebral artery occlusion model assessed as reduction in neurobehavioral defects at 5 mg/kg, ip after 24 hrs by TTC staining based assay; type: functional, organism-based
[3] = Ratio of drug concentration in brain to plasma of mouse at 5 to 50 mg/kg, ip after 2 hrs by HPLC/MS-MS analysis; type: ADME, organism-based; settings: dose 5-50 mg/kg, read-out: BPR
[4] = Drug concentration in brain of C57 mouse at 20 mg/kg, ip measured after 4 hrs by LC/MS-MS analysis; type: ADME, organism-based; settings: read-out: Ct
Rattus norvegicus [5] = assay: Neuroprotective activity in Sprague-Dawley rat middle cerebral artery occlusion model assessed as reduction in neurobehavioral defects at 25 mg/kg, ip after 24 hrs by TTC staining based assay; type: functional, organism-based
[6] = Drug concentration in plasma of C57 mouse at 20 mg/kg, ip measured after 4 hrs by LC/MS-MS analysis; type: ADME, organism-based
[7] = Drug concentration in plasma of C57 mouse at 20 mg/kg, ip measured after 1 hr by LC/MS-MS analysis; type: ADME, organism-based
in vivo [8] = settings: C57, mouse, brain/plasma, ip, 20 mg/kg
[9] = Drug concentration in brain of C57 mouse at 20 mg/kg, ip measured after 1 hr by LC/MS-MS analysis; type: ADME, organism-based; settings: read-out: Ct
in vivo [10] = settings: C57, mouse, brain/plasma, ip, 20 mg/kg; remark: listed apart in the source
Rattus norvegicus [11] = assay: Neuroprotective activity in Sprague-Dawley rat middle cerebral artery occlusion model assessed as reduction in cerebral infarction at 25 mg/kg, ip after 24 hrs by TTC staining based assay (reference value: 21.22%); type: functional; set-up: scale not given: the % may be the effect or the level left
[12] = target: T2, Protein deacetylase HDAC6 (Homo sapiens) (UniProt Q9UBN7); assay: Inhibition of HDAC6 in human SH-SY5Y cells assessed as fold increase in ratio of acetylated alpha-tubulin to alpha-tubulin at 10 uM incubated for 24 hrs by Western blot analysis; type: cell-based
T2 sequence (whole entry): T1 sequence (Q9UBN7 whole entry)

[13] = target: T2, Protein deacetylase HDAC6 (Homo sapiens); assay: Inhibition of HDAC6 in human SH-SY5Y cells assessed as fold increase in ratio of acetylated histone H3 to histone H3 at 10 uM incubated for 24 hrs by Western blot analysis; type: cell-based
[14] = target: T2, Protein deacetylase HDAC6 (Homo sapiens); assay: Inhibition of HDAC6 in human SH-SY5Y cells assessed as increase in acetylated histone H3 levels at 0.1 to 10 uM incubated for 24 hrs by Western blot analysis; type: cell-based; settings: dose 0.1-10 µM
[15] = target: T2, Protein deacetylase HDAC6 (Homo sapiens); assay: Inhibition of HDAC6 in human SH-SY5Y cells assessed as increase in acetylated alpha-tubulin levels incubated for 24 hrs by Western blot analysis; type: cell-based; settings: dose 0.1-10 µM
[16] = target: T2, Protein deacetylase HDAC6 (Homo sapiens); assay: Inhibition of HDAC6 in human SH-SY5Y cells assessed as fold increase in ratio of acetylated alpha-tubulin to alpha-tubulin at 1 uM incubated for 24 hrs by Western blot analysis; type: cell-based
[17] = Ratio of drug concentration in brain to plasma of Sprague-Dawley rat at 50 mg/kg, po measured after 60 to 180 mins by LC/MS-MS analysis; type: ADME, organism-based; settings: time 60-180 min

Sequence of Histone deacetylase 1 (Q13547 whole entry): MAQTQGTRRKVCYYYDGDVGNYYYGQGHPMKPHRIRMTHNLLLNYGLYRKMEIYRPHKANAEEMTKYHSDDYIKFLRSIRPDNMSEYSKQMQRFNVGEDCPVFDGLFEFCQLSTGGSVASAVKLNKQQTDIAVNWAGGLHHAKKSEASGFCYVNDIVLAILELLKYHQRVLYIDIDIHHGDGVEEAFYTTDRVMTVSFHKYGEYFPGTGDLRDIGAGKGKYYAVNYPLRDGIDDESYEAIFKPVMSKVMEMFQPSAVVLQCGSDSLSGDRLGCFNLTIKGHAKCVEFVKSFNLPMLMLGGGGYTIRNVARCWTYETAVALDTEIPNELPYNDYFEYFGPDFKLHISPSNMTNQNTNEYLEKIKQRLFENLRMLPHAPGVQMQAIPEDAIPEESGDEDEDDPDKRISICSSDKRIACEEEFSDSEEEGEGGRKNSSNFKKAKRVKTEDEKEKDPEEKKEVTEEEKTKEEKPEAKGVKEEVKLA

With `O=C(NO)c1ccc(CN2CCC[S+]([O-])c3ccccc32)cc1` (stereo not given) the IC50 (Histone deacetylase 1) was 166 nM and the IC50 [1] was 13 nM.

For `CCCCC1OC(=O)c2ccccc21` (stereo not given), the Activity (Rattus norvegicus [2]) was “Active”.

For `O=C(NO)c1cnc(NC2(c3ccccc3)CC2)nc1`, the Kp at 2 h [3] was 1.22.

In the case of `O=C(NO)c1ccc(CN2CCCCc3ccc(-c4ccccc4)cc32)cc1`, the IC50 (Histone deacetylase 1) is reported as 706 nM.

With `O=C(NO)c1ccc(CN2CCCCc3ccccc32)cc1` the IC50 (Histone deacetylase 1) was 392 nM and the IC50 [1] was 6.4 nM.

`COc1ccc(Br)c2c1CCN(Cc1ccc(C(=O)NO)cc1)CC2` gave an IC50 (Histone deacetylase 1) of 385 nM and an IC50 [1] of 111 nM.

`O=C(NO)c1ccc(CN2CCCCc3ccc(C4CC4)cc32)cc1` showed an IC50 (Histone deacetylase 1) of 509 nM.

Work on `COc1cc2c(cc1OC)N(Cc1ccc(C(=O)NO)cc1)CCCC2` yielded an IC50 (Histone deacetylase 1) of 295 nM and an IC50 [1] of 14 nM.

`Cc1ccc2c(c1)N(Cc1ccc(C(=O)NO)cc1)CCCC2` gave an IC50 (Histone deacetylase 1) of 377 nM and an IC50 [1] of 12 nM.

With `COc1ccc2c(c1)N(Cc1ccc(C(=O)NO)cc1)CCCC2` the concentration at 4 h [4] was 18.7 ng/mL, the Activity (Rattus norvegicus [5]) was “Active” and the concentration at 4 h [6] was 8.18 ng/mL. It also gave a concentration at 1 h [7] of 526 ng/mL, a Kp at 1 h (in vivo [8]) of 1.85 and a concentration at 1 h [9] of 957 ng/mL. It also gave a Kp at 4 h (in vivo [10]) of 2.29.

`O=C(NO)c1ccc(CN2CCCOc3ccccc32)cc1` showed a concentration at 4 h [4] of 12.2 ng/mL, a concentration at 4 h [6] of 4.29 ng/mL and a concentration at 1 h [7] of 59.4 ng/mL. The Kp at 1 h (in vivo [8]) was 1.98, the concentration at 1 h [9] was 111 ng/mL and the Kp at 4 h (in vivo [10]) was 2.88.

Work on `O=C(NO)c1ccc(CN2CCCCc3cc(Cl)ccc32)cc1` yielded an IC50 (Histone deacetylase 1) of 819 nM and an IC50 [1] of 37 nM.

In the case of `COc1ccc(-c2ccccc2)c2c1CCN(Cc1ccc(C(=O)NO)cc1)CC2`, the IC50 (Histone deacetylase 1) is reported as 826 nM and the IC50 [1] is reported as 497 nM.

Molecule `O=C(NO)c1cnc(NC2(c3cccc(F)c3)CCCCC2)nc1` has a Kp at 2 h [3] of 1.26.

Molecule `O=C(NO)c1ccc(CN2CCc3ccccc3CC2)cc1` has an IC50 (Histone deacetylase 1) of 804 nM and an IC50 [1] of 255 nM.

In the case of `COc1cccc2c1CCN(Cc1ccc(C(=O)NO)cc1)CC2`, the IC50 (Histone deacetylase 1) is reported as 798 nM and the IC50 [1] is reported as 318 nM.

With `COc1ccc2c(c1)CCN(Cc1ccc(C(=O)NO)cc1)CC2` the IC50 (Histone deacetylase 1) was 431 nM and the IC50 [1] was 29 nM.

In the case of `COc1ccc(C2CC2)c2c1CCN(Cc1ccc(C(=O)NO)cc1)CC2`, the IC50 (Histone deacetylase 1) is reported as 502 nM.

`O=C(NO)c1ccc(CN2CCCc3cc(Cl)ccc32)cc1` gave a concentration at 4 h [4] of 13.1 ng/mL, a concentration at 4 h [6] of 4.13 ng/mL and a concentration at 1 h [7] of 256 ng/mL. For the same molecule, the concentration at 1 h [9] was 468 ng/mL.

In the case of `O=C(NO)c1ccc(CN2CCCSc3ccccc32)cc1`, the concentration at 4 h [4] is reported as 16.6 ng/mL, the Activity (Rattus norvegicus [11]) is reported as 11.47% and the FC [12] is reported as 1.4. The FC [13] was 1.1, the inhibition [14] was “Active” and the IC50 [1] was 1.8 nM. For the same molecule, the inhibition [15] was “Dose-Dependent Effect”, the Activity (Rattus norvegicus [5]) was “Active” and the concentration at 4 h [6] was 7.03 ng/mL. The concentration at 1 h [7] was 96.1 ng/mL, the FC [16] was 1.3 and the Kp at 1 h (in vivo [8]) was 2.3. For the same molecule, the concentration at 1 h [9] was 220 ng/mL and the Kp at 4 h (in vivo [10]) was 2.35.

For `CN1CCc2c(c3ccccc3n2Cc2ccc(C(=O)NO)cc2)C1` [TUBASTATIN A], the Activity (Rattus norvegicus [11]) was 13.02%, the Activity (Rattus norvegicus [5]) was “Active” and the Kp at 2 h [3] was 0.18.

`O=C(NO)c1ccc(CN2CCCCc3ccc(F)cc32)cc1` showed an IC50 (Histone deacetylase 1) of 761 nM and an IC50 [1] of 19 nM.

In the case of `O=C(NO)c1ccc(CNc2cccc3cccnc23)cc1`, the Kp [17] is reported as 1.01.

For `O=C(NO)c1ccc(CN2CCCc3ccccc3C2)cc1`, the IC50 (Histone deacetylase 1) was 1000 nM and the IC50 [1] was 100 nM.
